Test results: patent publication US20240336622A1 (The Board of Regents of The University of Texas System, priority 2021, published 2024)

The compounds below were run on UWB1 cells (assay: cells). Settings: read-out: IC50 (μM) UWB1 cells.

Structure (SMILES)	IC50 [µM]
COC(=O)C[C@H]1[C@]2(C)C3=C(C)[C@H](c4ccc(CO[Si](C)(C)C(C)(C)C)cc4)C[C@H]3O[C@@H]2[C@@H]2OC(=O)[C@]3(C)C=CC(=O)[C@@]1(C)[C@@H]23 [S-146]	0.18
COC(=O)C[C@H]1[C@@H]2CC3=C(C)[C@H](c4ccc(CO[Si](C)(C)C(C)(C)C)cc4)C[C@@H]3O[C@@H]2[C@@H]2OC(=O)[C@]3(C)C=CC(=O)[C@@]1(C)[C@@H]23 [S-147]	0.192
COC(=O)C[C@H]1[C@]2(C)C3=C(C)[C@@H](c4ccc(CO[Si](C)(C)C(C)(C)C)cc4)C[C@H]3O[C@@H]2[C@@H]2OC(=O)[C@]3(C)C=CC(=O)[C@@]1(C)[C@@H]23 [S-148]	0.161
COC(=O)C[C@H]1[C@@H]2CC3=C(C)[C@@H](c4ccc(CO[Si](C)(C)C(C)(C)C)cc4)C[C@@H]3O[C@@H]2[C@@H]2OC(=O)[C@]3(C)C=CC(=O)[C@@]1(C)[C@@H]23 [S-149]	0.163

Same assay, conditions: read-out: IC50 (μM) UWB1 cells, UWB1 cell viability

Structure (SMILES)	IC50 [µM]
COC(=O)C[C@H]1[C@@H]2CC3=C(C)[C@@H](c4ccc(-c5cc(C(C)(C)C)cc(C(C)(C)C)c5)cc4)C[C@H]3O[C@@H]2[C@@H]2OC(=O)[C@]3(C)C=CC(=O)[C@@]1(C)[C@@H]23 [S-136]	0.0934
COC(=O)C[C@H]1[C@@H]2CC3=C(C)[C@@H](c4ccc(-c5cc(C(C)(C)C)cc(C(C)(C)C)c5)cc4)C[C@@H]3O[C@@H]2[C@@H]2OC(=O)[C@]3(C)C=CC(=O)[C@@]1(C)[C@@H]23 [S-137]	0.169
COC(=O)C[C@H]1[C@@H]2CC3=C(C)[C@@H](c4ccc(OS(=O)(=O)c5c(C)cc(C)cc5C)cc4)C[C@@H]3O[C@@H]2[C@@H]2OC(=O)[C@]3(C)C=CC(=O)[C@@]1(C)[C@@H]23 [S-139]	0.14
COC(=O)C[C@H]1[C@@H]2CC3=C(C)[C@@H](c4ccc(OS(=O)(=O)c5ccc(C)cc5)cc4)C[C@@H]3O[C@@H]2[C@@H]2OC(=O)[C@]3(C)C=CC(=O)[C@@]1(C)[C@@H]23 [S-140]	0.119
COC(=O)C[C@H]1[C@]2(C)C3=C(C)[C@H](c4ccc(C(C)(C)C)cc4)C[C@H]3O[C@@H]2[C@@H]2OC(=O)[C@]3(C)C=CC(=O)[C@@]1(C)[C@@H]23 [S-141]	0.248
COC(=O)C[C@H]1[C@@H]2CC3=C(C)[C@H](c4ccc(C(C)(C)C)cc4)C[C@@H]3O[C@@H]2[C@@H]2OC(=O)[C@]3(C)C=CC(=O)[C@@]1(C)[C@@H]23 [S-142]	0.145
COC(=O)C[C@H]1[C@@H]2CC3=C(C)[C@H](c4ccc(C(C)(C)C)cc4)C[C@H]3O[C@@H]2[C@@H]2OC(=O)[C@]3(C)C=CC(=O)[C@@]1(C)[C@@H]23 [S-143]	0.238
COC(=O)C[C@H]1[C@@H]2CC3=C(C)[C@@H](c4ccc(C(C)(C)C)cc4)C[C@@H]3O[C@@H]2[C@@H]2OC(=O)[C@]3(C)C=CC(=O)[C@@]1(C)[C@@H]23 [S-144]	0.14
COC(=O)C[C@H]1[C@]2(C)C3=C(C)[C@@H](c4ccc(C(C)(C)C)cc4)C[C@H]3O[C@@H]2[C@@H]2OC(=O)[C@]3(C)C=CC(=O)[C@@]1(C)[C@@H]23 [S-145]	0.157
COC(=O)C[C@H]1[C@@H]2CC3=C(C)[C@@H](c4ccc(CO)cc4)C[C@@H]3O[C@@H]2[C@@H]2OC(=O)[C@]3(C)C=CC(=O)[C@@]1(C)[C@@H]23 [S-150]	0.351
COC(=O)C[C@H]1[C@@H]2CC3=C(C)[C@@H](c4ccc(C=O)cc4)C[C@@H]3O[C@@H]2[C@@H]2OC(=O)[C@]3(C)C=CC(=O)[C@@]1(C)[C@@H]23 [S-151]	0.766
COC(=O)C[C@H]1[C@@H]2CC3=C(C)[C@@H](c4ccc(C(=O)O)cc4)C[C@@H]3O[C@@H]2[C@@H]2OC(=O)[C@]3(C)C=CC(=O)[C@@]1(C)[C@@H]23 [S-152]	2.88
COC(=O)C[C@H]1[C@@H]2CC3=C(C)[C@@H](c4ccc(C(=O)NC(C)(C)C)cc4)C[C@@H]3O[C@@H]2[C@@H]2OC(=O)[C@]3(C)C=CC(=O)[C@@]1(C)[C@@H]23 [S-153]	0.245
CC1=C2[C@@H](C[C@H]1c1ccoc1)O[C@@H]1[C@@H]3OC(=O)[C@]4(C)C=CC(=O)[C@](C)([C@@H](CC(=O)OC(C)(C)C)[C@]21C)[C@@H]34 [S-154]	0.453
